Where two headings read alike, the source gives them in different places. Where a SMILES comes first, the peptide text is derived from it. Bridges are numbered along the chain shown (N, C = ends). [ ]: non-standard residue; d: D form. The star is where a group is joined. hPhe(3-Cl-4-CF3) = N[C@@H](CCc1ccc(C(F)(F)F)c(Cl)c1)C(=O)O; NPrPhe(4-CF3) = CCCN[C@@H](Cc1ccc(C(F)(F)F)cc1)C(=O)O; NEtPhe(4-CF3) = CCN[C@@H](Cc1ccc(C(F)(F)F)cc1)C(=O)O; hPhe(3,4-Cl2) = N[C@@H](CCc1ccc(Cl)c(Cl)c1)C(=O)O; NMeGly(cPent) = CN[C@H](C(=O)O)C1CCCC1; Hyp = O=C(O)[C@@H]1C[C@@H](O)CN1; NMeD = CN[C@@H](CC(=O)O)C(=O)O; NMeL = CN[C@@H](CC(C)C)C(=O)O; Morpholide = C1CN(*)CCO1; NMeA = CN[C@@H](C)C(=O)O; Ac5c = NC1(C(=O)O)CCCC1; Aze = O=C(O)[C@@H]1CCN1; Ac4c = NC1(C(=O)O)CCC1; NEtG = CCNCC(=O)O; Sar = CNCC(=O)O
Columns and labels:
[1] = target: GDP-bound NRAS wild-type protein (Homo sapiens, UniProt P01111); assay: Binding to NRAS by surface plasmon resonance (SPR), Single Cycle Kinetics; conditions: for NRAS/KRAS (ratio of KD value with respect to NRAS to KD value with respect to KRAS) / NRAS/KRAS (ratio of KD value for NRAS to KD value for KRAS): SPR, GDP-bound NRAS wild-type protein vs GDP-bound KRAS wild-type protein
[2] = target: GDP-bound KRAS wild-type protein (Homo sapiens, UniProt P01116); assay: Binding to KRAS by surface plasmon resonance (SPR), Single Cycle Kinetics; conditions: GDP-bound KRAS wild-type protein, read-out: KRAS KD
[3] = target: GDP-bound HRAS wild-type protein (Homo sapiens, UniProt P01112); assay: Binding to HRAS by surface plasmon resonance (SPR), Single Cycle Kinetics; conditions: for HRAS/KRAS (ratio of KD value with respect to HRAS to KD value with respect to KRAS) / HRAS/KRAS (ratio of KD value for HRAS to KD value for KRAS): SPR, GDP-bound HRAS wild-type protein vs GDP-bound KRAS wild-type protein
[4] = SPR Single Cycle Kinetics, 1:1 binding model

GDP-bound HRAS wild-type protein, sequence (P01112 whole entry): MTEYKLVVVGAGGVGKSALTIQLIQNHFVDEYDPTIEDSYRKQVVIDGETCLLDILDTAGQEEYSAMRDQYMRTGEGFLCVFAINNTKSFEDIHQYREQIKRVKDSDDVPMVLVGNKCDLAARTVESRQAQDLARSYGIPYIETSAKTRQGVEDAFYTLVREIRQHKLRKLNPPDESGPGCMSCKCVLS
GDP-bound KRAS wild-type protein, sequence (P01116 whole entry): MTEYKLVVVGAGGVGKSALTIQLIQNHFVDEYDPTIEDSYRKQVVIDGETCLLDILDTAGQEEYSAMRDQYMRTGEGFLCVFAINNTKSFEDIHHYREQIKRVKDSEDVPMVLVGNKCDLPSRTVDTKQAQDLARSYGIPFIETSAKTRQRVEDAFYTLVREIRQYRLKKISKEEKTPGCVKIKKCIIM
GDP-bound NRAS wild-type protein, sequence (P01111 whole entry): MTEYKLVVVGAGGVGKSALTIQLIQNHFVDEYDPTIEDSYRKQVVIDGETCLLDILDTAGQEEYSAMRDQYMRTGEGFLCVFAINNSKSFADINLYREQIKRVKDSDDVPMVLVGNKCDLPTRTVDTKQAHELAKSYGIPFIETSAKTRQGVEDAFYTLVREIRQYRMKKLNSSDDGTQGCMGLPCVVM

Row | Kd [2, 4] | SMILES | NRAS/KRAS (ratio of KD value with respect to NRAS to KD value with respect to KRAS) [1] | HRAS/KRAS (ratio of KD value with respect to HRAS to KD value with respect to KRAS) [3] | NRAS/KRAS (ratio of KD value for NRAS to KD value for KRAS) [1] | HRAS/KRAS (ratio of KD value for HRAS to KD value for KRAS) [3] | further results
1 | 3.6 nM | CCO[C@@H]1C[C@H]2C(=O)NC3(CCC3)C(=O)N(C)[C@@H](C3CCCC3)C(=O)N(C)[C@H](C(=O)N(C)C)CC(=O)N(C)C[C@@H](C)C(=O)N[C@@H]([C@@H](C)CC)C(=O)N(C)CC(=O)N(C)[C@H]3CCCCN(C3=O)[C@@H](Cc3ccc(C(F)(F)F)cc3)C(=O)N(C)CC(=O)N[C@@H](CCc3cc(F)c(C(F)(F)F)c(F)c3)C(=O)N2C1 [PP0706] | B (a compound having 3 or more and less than 10 is denoted as B) | B (a compound having 3 or more and less than 10 is denoted as B) |  |  | 
2 |  | CC[C@H](C)[C@@H]1NC(=O)[C@H](COC)N(C)C(=O)C[C@@H](C(=O)N2CCOCC2)N(C)C(=O)[C@H](C2CCCC2)N(C)C(=O)C2(CCCC2)NC(=O)[C@@H]2CCCN2C(=O)[C@H](CCc2ccc(C(F)(F)F)c(Cl)c2)NC(=O)CN(C)C(=O)[C@H](Cc2ccc(F)cc2)N2CCCCC[C@@H](C2=O)N(C)C(=O)CN(C)C1=O [PP0960] |  |  | B (a compound having 3 or more and less than 10 is denoted as B) | B (a compound having 3 or more and less than 10 is denoted as B) | Kd ([2]; SPR, Single Cycle Kinetics): 0.37 nM
3 | 0.019 nM | CC[C@H](C)[C@@H]1NC(=O)[C@H](CC(C)C)N(C)C(=O)C[C@@H](C(=O)N(C)C)N(C)C(=O)[C@H](C2CCCC2)N(C)C(=O)C2(CCC2)NC(=O)[C@@H]2CC(F)(F)CN2C(=O)[C@H](CCc2cc(F)c(C(F)(F)F)c(F)c2)NC(=O)CN(C)C(=O)[C@H](Cc2ccc(C(F)(F)F)cc2)N2CCCC[C@@H](C2=O)N(C)C(=O)CN(C)C1=O [PP0577] | C (A compound having a KD ratio of 0.1 or more and less than 3 is denoted as C) | C (A compound having a KD ratio of 0.1 or more and less than 3 is denoted as C) |  |  | 
4 | 0.063 nM | CCCN1C(=O)[C@@H]2CCN2C(=O)[C@H](C)N(C)C(=O)[C@H]([C@@H](C)CC)NC(=O)[C@H](CC(C)C)N(C)C(=O)C[C@@H](C(=O)N2CCOCC2)N(C)C(=O)[C@H](C2CCCC2)N(C)C(=O)C2(CCCC2)NC(=O)[C@@H]2C[C@@H](OC)CN2C(=O)[C@H](CCc2ccc(C(F)(F)F)c(Cl)c2)NC(=O)CN(C)C(=O)[C@@H]1Cc1ccc(C(F)(F)F)cc1 [PP0283] ([NMeL]I[NMeA][Aze][NPrPhe(4-CF3)][Sar][hPhe(3-Cl-4-CF3)][Hyp](Me)[Ac5c][NMeGly(cPent)][NMeD]-Morpholide; lactam N-11) |  |  | C (A compound having a KD ratio of 0.1 or more and less than 3 is denoted as C) | C (A compound having a KD ratio of 0.1 or more and less than 3 is denoted as C) | 
5 |  | CCCOC[C@H]1C(=O)N[C@@H]([C@@H](C)CC)C(=O)N(C2CC2)CC(=O)N(C)[C@H]2C/C=C\CCN(C2=O)[C@@H](Cc2ccc(C)cc2)C(=O)N(C)CC(=O)N[C@@H](CCc2ccc(C(F)(F)F)c(OC)c2)C(=O)N2C[C@H](OCC)C[C@H]2C(=O)N(C)C2(CCC2)C(=O)N(C)[C@@H](C2CCCC2)C(=O)N(C)[C@H](C(=O)N(C)C)CC(=O)N1C [PP2330] |  |  | A (a compound having 10 or more and less than 20 is denoted as A) | A (a compound having 10 or more and less than 20 is denoted as A) | Kd ([2]; SPR, Single Cycle Kinetics): 0.11 nM
6 | 12 nM | CC[C@H](C)[C@@H]1NC(=O)[C@H](CC(C)C)N(C)C(=O)C[C@@H](C(=O)N2CCOCC2)N(C)C(=O)[C@H](C2CCCC2)N(C)C(=O)C2(CCOCC2)NC(=O)[C@@H]2CCCN2C(=O)[C@H](CCc2cc(F)c(C(F)(F)F)c(F)c2)NC(=O)CN(C)C(=O)[C@H](Cc2ccc(C(F)(F)F)cc2)N2CCCCC[C@@H](C2=O)N(C)C(=O)CN(C)C1=O [PP0502] | A (a compound having 10 or more and less than 20 is denoted as A) | B (a compound having 3 or more and less than 10 is denoted as B) |  |  | 
7 | 0.28 nM | CC[C@H](C)[C@@H]1NC(=O)[C@H](CC(C)C)N(C)C(=O)C[C@@H](C(=O)N2CCOCC2)N(C)C(=O)[C@H](C2CCCC2)N(C)C(=O)C2(CCCC2)NC(=O)[C@@H]2CCCN2C(=O)[C@H](CCc2ccc(Cl)c(Cl)c2)NC(=O)CN(C)C(=O)[C@H](Cc2ccc(C(F)(F)F)cc2)N(CC)C(=O)CN(C)C(=O)CN(C)C1=O [PP0237] ([NMeL]I[Sar][Sar][NEtPhe(4-CF3)][Sar][hPhe(3,4-Cl2)]P[Ac5c][NMeGly(cPent)][NMeD]-Morpholide; lactam N-11) |  |  | B (a compound having 3 or more and less than 10 is denoted as B) | C (A compound having a KD ratio of 0.1 or more and less than 3 is denoted as C) | 
8 | 0.022 nM | CCO[C@@H]1C[C@H]2C(=O)NC3(CCC3)C(=O)N(C)[C@@H](C3CCCC3)C(=O)N(C)[C@H](C(=O)N3CCOCC3)CC(=O)N(C)[C@@H](C)C(=O)N[C@@H]([C@@H](C)CC)C(=O)N(C)CC(=O)N(C)[C@H]3CCCCN(C3=O)[C@@H](Cc3ccc(C(F)(F)F)cc3)C(=O)N(C)CC(=O)N[C@@H](CCc3cc(F)c(C(F)(F)F)c(F)c3)C(=O)N2C1 [PP0585] | B (a compound having 3 or more and less than 10 is denoted as B) | B (a compound having 3 or more and less than 10 is denoted as B) |  |  | 
9 |  | CCO[C@@H]1C[C@H]2C(=O)NC3(CCC3)C(=O)N(C)[C@@H](C3CCCC3)C(=O)N(C)[C@H](C(=O)N(CC)CC)CC(=O)N(C)[C@@H](CC)C(=O)N[C@@H]([C@@H](C)CC)C(=O)N(C)CC(=O)N(C)[C@H]3C/C=C\CCN(C3=O)[C@@H](Cc3ccc(C(F)(F)F)cc3)C(=O)N(C)CC(=O)N[C@@H](CCc3cc(F)c(C(F)(F)F)c(F)c3)C(=O)N2C1 [PP1305, (2S,8S,12R,14S,20S,23S,27S,30S,36S,38Z)-20-cyclopentyl-8-[2-[3,5-difluoro-4-(trifluoromethyl)phenyl]ethyl]-12-ethoxy-N,N,27-triethyl-4,19,22,26,32,35-hexamethyl-30-[(1S)-1-methylpropyl]-3,6,9,15,18,21,25,28,31,34,42-undecaoxo-2-[[4-(trifluoromethyl)phenyl]methyl]spiro[1,4,7,10,16,19,22,26,29,32,35-undecazatricyclo[34.5.1.0^10,14]dotetracont-38-ene-17,1′-cyclobutane]-23-carboxamide] |  |  |  |  | NRAS/KRAS (ratio of KD value for NRAS to KD value for KRAS) ([1]; KD ratio class): AA (a compound having 20 or more is denoted as AA); Kd ([2]; SPR, Single Cycle Kinetics, 1:1 binding model): 0.12 nM; HRAS/KRAS (ratio of KD value for HRAS to KD value for KRAS) ([3]; KD ratio class): A (a compound having 10 or more and less than 20 is denoted as A)
10 |  | CCO[C@@H]1C[C@H]2C(=O)NC3(CC(C)(C)C3)C(=O)N(C)[C@@H](C3CCCC3)C(=O)N(C)[C@H](C(=O)N(C)CC)CC(=O)N(C)[C@@H](C3CCC3)C(=O)N[C@@H]([C@@H](C)CC)C(=O)N(C)CC(=O)N(C)[C@H]3C/C=C\CCN(C3=O)[C@@H](Cc3ccc(C(F)(F)F)cc3)C(=O)N(C)CC(=O)N[C@@H](CCc3cc(F)c(C(F)(F)F)c(F)c3)C(=O)N2C1 [PP2038] |  |  | A (a compound having 10 or more and less than 20 is denoted as A) | A (a compound having 10 or more and less than 20 is denoted as A) | Kd ([2]; SPR, Single Cycle Kinetics): 0.16 nM
11 | 0.42 nM | CCCN1C(=O)[C@@H]2CCN2C(=O)CN(CC)C(=O)[C@H]([C@@H](C)CC)NC(=O)[C@H](CC(C)C)N(C)C(=O)C[C@@H](C(=O)N2CCOCC2)N(C)C(=O)[C@H](C2CCCC2)N(C)C(=O)C2(CCCC2)NC(=O)[C@@H]2CCCN2C(=O)[C@H](CCc2ccc(C(F)(F)F)c(Cl)c2)NC(=O)CN(C)C(=O)[C@@H]1Cc1ccc(C(F)(F)F)cc1 [PP0259] ([NMeL]I[NEtG][Aze][NPrPhe(4-CF3)][Sar][hPhe(3-Cl-4-CF3)]P[Ac5c][NMeGly(cPent)][NMeD]-Morpholide; lactam N-11) |  |  | C (A compound having a KD ratio of 0.1 or more and less than 3 is denoted as C) | B (a compound having 3 or more and less than 10 is denoted as B) | 
12 | 0.046 nM | CCCN1C(=O)[C@@H]2CCN2C(=O)CN(C)C(=O)[C@H]([C@@H](C)CC)NC(=O)[C@H](CC(C)C)N(C)C(=O)C[C@@H](C(=O)N2CCOCC2)N(C)C(=O)[C@H](C2CCCC2)N(C)C(=O)C2(CCC2)NC(=O)[C@@H]2C[C@@H](OCC)CN2C(=O)[C@H](CCc2ccc(C(F)(F)F)c(Cl)c2)NC(=O)CN(C)C(=O)[C@@H]1Cc1ccc(C(F)(F)F)cc1 [PP0411] ([NMeL]I[Sar][Aze][NPrPhe(4-CF3)][Sar][hPhe(3-Cl-4-CF3)][Hyp](Et)[Ac4c][NMeGly(cPent)][NMeD]-Morpholide; lactam N-11) | C (A compound having a KD ratio of 0.1 or more and less than 3 is denoted as C) | C (A compound having a KD ratio of 0.1 or more and less than 3 is denoted as C) |  |  | 

Row | SMILES | Kd [2, 4] | NRAS/KRAS (ratio of KD value with respect to NRAS to KD value with respect to KRAS) [1] | HRAS/KRAS (ratio of KD value with respect to HRAS to KD value with respect to KRAS) [3] | NRAS/KRAS (ratio of KD value for NRAS to KD value for KRAS) [1] | HRAS/KRAS (ratio of KD value for HRAS to KD value for KRAS) [3] | further results
13 | CCO[C@@H]1C[C@H]2C(=O)NC3(CC(C)(C)C3)C(=O)N(C)[C@@H](C3CCCC3)C(=O)N(C)[C@H](C(=O)N3CCCCC3)CC(=O)N(C)[C@H]3CC/C=C/c4ccc(cc4)C[C@@H](C(=O)N(C)CC(=O)N[C@@H](CCc4ccc(Cl)c(Cl)c4)C(=O)N2C1)N1CC/C=C\C[C@@H](C1=O)N(C)C(=O)CN(C)C(=O)[C@H]([C@@H](C)CC)NC3=O [PP2597] | 0.51 nM |  |  |  |  | NRAS/KRAS (ratio of KD value with respect to GDP-bound NRAS wild-type protein to KD value with respect to KRAS) ([1]; SPR KD ratio NRAS/KRAS, class symbols): A (a compound having 10 or more and less than 20 is denoted as A); HRAS/KRAS (ratio of KD value with respect to GDP-bound HRAS wild-type protein to KD value with respect to KRAS) ([3]; SPR KD ratio HRAS/KRAS, class symbols): A (a compound having 10 or more and less than 20 is denoted as A)
